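Five compound concentrations were applied to cells in 96-well plates for 48 hours; endpoints were derived by simple linear interpolation of the resulting dose-response curve. Here, GI50 denotes the concentration required for 50% inhibition of growth. TGI marks complete inhibition of growth.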 Bounds are passed on as bounds.

What all share (experiment): growth of human tumour cells (NCI), 48 h
Assay [1] concerns NCI-H226 lung.
Assay [2] deals with SK-MEL-2 melanoma.
Assay [3] concerns MDA-MB-231 breast.
For assay [4], the system named is SN12C renal.
The test system of assay [5] is SK-MEL-5 melanoma.
Assay [6] has as its system SF-539 CNS.
For assay [7], the system named is RXF 393 renal.
The subject of assay [8] is OVCAR-3 ovarian.
The subject of assay [9] is HCT-15 colon.
Assay [10] deals with 786-0 renal.

Take `COc1cc(NN=C(c2ccc(O)cc2)c2ccc(O)cc2)c([N+](=O)[O-])cc1[N+](=O)[O-]`: the GI50 is 23.6 µM in [1]; 14.2 µM in assay [2]; 11.4 µM in assay [3]; 11.2 µM in [4]; 6.24 µM in assay [5]; 13 µM in assay [6]. The GI50 in assay [7] is 8.05 µM; in assay [8], 1.21 µM; in assay [9] it was 5.75 µM; in [10], 11.7 µM. The TGI in assay [1] was found to be 71.6 µM; in [2], 30.5 µM; in [3], 25.5 µM; in [4] it was 23.3 µM; in assay [5], 20.6 µM; in assay [6], 27.7 µM. For the same molecule, the TGI is 22.9 µM in assay [7], 14.8 µM in assay [8], 20.1 µM in assay [9] and 24.8 µM in [10].
As for `COc1cc2c3c(n(CCCN)c(=O)c2cc1OC)-c1ccc(F)cc1C3=O`, the GI50 in assay [1] is 7.87 µM; in assay [2], 17 µM; in assay [3], 12.8 µM; in assay [4], 4.29 µM; in assay [5], 1.29 µM; in assay [6], 1.28 µM. Further, the GI50 in assay [7] is 7.64 µM; in [8], 4.46 µM; in assay [9], 2.24 µM; in [10], 1.34 µM. The TGI in assay [1] came out at 27.2 µM; in assay [2], 34.7 µM; in assay [3], 26.3 µM; in assay [4], 17.4 µM; in assay [5] it was 6.06 µM; in assay [6], 3.17 µM. The TGI is 26.6 µM in [7], 17.4 µM in assay [8], 6.89 µM in assay [9] and 2.7 µM in assay [10].
Take `C(CCc1nnc2c(n1)CCCC2)Cc1nnc2c(n1)CCCC2`: the TGI in assay [1], in assay [2], in [3], in assay [4], in assay [5] and in [6] was > 100 µM in each case. For the same molecule, the TGI in [7], in [8], in assay [9] and in assay [10] was > 100 µM throughout.
As for `CC(C)(C)OC(=O)NCCCCCCCCn1c2c(c3ccccc3c1=O)C(=O)c1ccccc1-2`, the GI50 in assay [1] was 22.3 µM; in assay [2], 5.61 µM; in [3], 13.5 µM; in [4], > 50 µM; in assay [5] it was > 40 µM; in assay [6], 9.64 µM. The GI50 is 8.49 µM in assay [7], > 50 µM in assay [9] and 10.8 µM in assay [10]. Further, the TGI in assay [1] is > 50 µM; in [2], 19.9 µM; in assay [3], > 47.5 µM; in assay [4], > 50 µM; in [5] it was > 50 µM; in assay [6] it was 29.6 µM. Besides, the TGI was 24.5 µM in assay [7], > 39.4 µM in assay [8], > 50 µM in assay [9] and 27.5 µM in assay [10].
With `COC(=O)c1c2c(c(C)[n+]([O-])c1C)C(=O)C=C(NCc1cccc(OC)c1)C2=O`, the GI50 in assay [1] is 1.72 µM; in assay [2], 1.15 µM; in [3] it was 0.358 µM; in assay [4], 0.323 µM; in assay [5] it was 0.171 µM; in assay [6], 0.879 µM. Further, the GI50 was 1.27 µM in assay [7], 0.257 µM in assay [8], 0.331 µM in [9] and 1.88 µM in assay [10]. For the same molecule, the TGI in [1] was 4.48 µM; in assay [2] it was 2.78 µM; in assay [3], 4.83 µM; in assay [4] it was 1.24 µM; in [5], 0.334 µM; in assay [6] it was 2.11 µM. Further, the TGI in [7] is 2.63 µM; in assay [8], 0.743 µM; in assay [9], 1.61 µM; in assay [10], 4.85 µM.
With `Cn1ccc(=Nc2ccc(NC(=O)c3ccc(N=c4ccn(C)c5ccc([N+](=O)[O-])cc45)cc3)cc2)cc1`, the GI50 in assay [1] is 74.3 µM; in assay [2] it was 79.1 µM; in [3] it was 6.82 µM; in assay [4] it was 5.09 µM; in assay [5] it was 20.3 µM; in assay [6], 6.21 µM. Besides, the GI50 in [7] was 21.4 µM; in [8], 15.2 µM; in [9] it was > 100 µM; in assay [10] it was 56.1 µM. The TGI was > 100 µM in [1]; > 100 µM in assay [2]; > 100 µM in assay [3]; > 100 µM in assay [4]; > 100 µM in assay [5]; 73.2 µM in assay [6]. Moreover, the TGI in assay [7] was 44.6 µM; in assay [8], 78.7 µM; in assay [9] it was > 100 µM; in [10] it was > 100 µM.
For `CC[N+](CC)=c1ccc2nc3c(cc(NCc4ccccc4)c4ccccc43)oc-2c1`, the GI50 in assay [1] is 0.358 µM; in assay [2], 0.737 µM; in assay [3], 0.214 µM; in assay [4], 1.02 µM; in assay [5], 0.147 µM; in [6] it was 4.19 µM. The GI50 in assay [7] was 0.781 µM; in assay [8] it was 0.0951 µM; in assay [9], 0.378 µM; in [10] it was 0.497 µM. In addition, the TGI in [1] turned out to be 1.83 µM; in assay [2] it was 2.25 µM; in assay [3], 1.72 µM; in assay [4], 2.34 µM; in assay [5] it was 0.28 µM; in assay [6], 21.2 µM. Moreover, the TGI in assay [7] was 2.12 µM; in assay [8], 0.557 µM; in assay [9] it was 2.29 µM; in assay [10], 1.85 µM.
Turning to `Cc1ccc(N=C2CSc3nnc(-c4csc5c4CCCC5)n3N2)cc1`, the GI50 is > 50 µM in [1]; 0.221 µM in assay [2]; 0.369 µM in assay [3]; 0.406 µM in assay [4]; 0.175 µM in assay [5]; 0.131 µM in assay [6]. For the same molecule, the GI50 in [7] was 0.162 µM; in assay [8], 0.162 µM; in assay [9], 0.227 µM; in assay [10], 0.297 µM. The TGI in assay [1] was > 50 µM; in assay [2], > 50 µM; in assay [3], > 50 µM; in assay [4] it was > 50 µM; in assay [5] it was > 50 µM; in [6], 0.473 µM. For the same molecule, the TGI in assay [7] was > 50 µM; in assay [8], 7.75 µM; in assay [9], > 50 µM; in assay [10], > 50 µM.

The record behind these values is PubChem BioAssay (NCI).
